# Activity calls are given as the source filed them. No cut-off for these calls is given here.
# Key:
# [1] = molecular target: Serine/threonine-protein kinase PLK2 (Homo sapiens) (UniProt Q9NYY3); experiment: Inhibition of PLK2 (unknown origin) assessed as residual activity at 100 nM by KINOMEscan analysis relative to control
# [2] = molecular target: Mitogen-activated protein kinase 14 (Homo sapiens) (UniProt Q16539); experiment: Inhibition of p38-alpha (unknown origin) assessed as residual activity at 100 nM by KINOMEscan analysis relative to control
# Sequence of Mitogen-activated protein kinase 14 (Homo sapiens) (Q16539 whole entry): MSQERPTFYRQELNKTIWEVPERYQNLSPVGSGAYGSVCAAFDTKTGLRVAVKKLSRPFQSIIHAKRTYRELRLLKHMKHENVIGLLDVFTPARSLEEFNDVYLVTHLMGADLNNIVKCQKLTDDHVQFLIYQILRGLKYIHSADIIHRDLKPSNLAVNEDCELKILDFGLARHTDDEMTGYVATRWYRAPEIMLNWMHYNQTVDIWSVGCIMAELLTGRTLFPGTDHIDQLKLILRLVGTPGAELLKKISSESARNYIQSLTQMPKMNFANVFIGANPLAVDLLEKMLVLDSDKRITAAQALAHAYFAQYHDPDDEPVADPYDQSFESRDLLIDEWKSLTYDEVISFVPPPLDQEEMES
# [3] = molecular target: Cyclin-dependent kinase 2 (Homo sapiens) (UniProt P24941); experiment: Inhibition of CDK2 (unknown origin) assessed as residual activity at 100 nM by KINOMEscan analysis relative to control
# [4] = tested on: SOS1-KRAS (Homo sapiens), Q07889+P01116 [G12C]; experiment: Inhibition of N-terminal GST-tagged recombinant human KRAS G12C mutant (1 to 169 residues) expressed in Escherichia coli/N-terminal His10-tagged wild-type recombinant human SOS1 catalytic domain (564 to 1049 residues) expressed in Escherichia coli protein-protein interaction assessed as reduction in FRET signal by HTRF analysis
# [5] = molecular target: Protein kinase C eta type (Homo sapiens) (UniProt P24723); experiment: Inhibition of PRKCH (unknown origin) assessed as residual activity at 100 nM by KINOMEscan analysis relative to control
# Sequence of Protein kinase C eta type (Homo sapiens) (P24723 whole entry): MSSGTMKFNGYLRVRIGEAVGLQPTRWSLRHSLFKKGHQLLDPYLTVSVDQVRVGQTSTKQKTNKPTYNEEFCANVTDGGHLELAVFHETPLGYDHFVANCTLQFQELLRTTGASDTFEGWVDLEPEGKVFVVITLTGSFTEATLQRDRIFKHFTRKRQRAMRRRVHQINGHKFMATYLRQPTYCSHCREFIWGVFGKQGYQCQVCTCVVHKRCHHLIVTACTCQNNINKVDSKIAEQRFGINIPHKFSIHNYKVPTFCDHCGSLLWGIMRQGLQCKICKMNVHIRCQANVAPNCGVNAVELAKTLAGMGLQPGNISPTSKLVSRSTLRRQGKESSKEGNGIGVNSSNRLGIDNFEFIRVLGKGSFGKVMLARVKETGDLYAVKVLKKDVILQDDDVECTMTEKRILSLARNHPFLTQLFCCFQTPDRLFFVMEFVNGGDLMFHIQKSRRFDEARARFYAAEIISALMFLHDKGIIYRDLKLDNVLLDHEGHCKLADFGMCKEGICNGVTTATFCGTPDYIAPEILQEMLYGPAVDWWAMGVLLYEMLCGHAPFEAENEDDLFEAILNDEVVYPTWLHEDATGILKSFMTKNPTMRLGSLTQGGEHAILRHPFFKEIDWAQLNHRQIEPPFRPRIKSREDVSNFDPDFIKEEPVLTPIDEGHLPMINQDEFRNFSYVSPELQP
# [6] = molecular target: Serine/threonine-protein kinase MARK2 (Homo sapiens) (UniProt Q7KZI7); experiment: Inhibition of MARK2 (unknown origin) assessed as residual activity at 100 nM by KINOMEscan analysis relative to control
# Sequence of Serine/threonine-protein kinase MARK2 (Homo sapiens) (Q7KZI7 whole entry): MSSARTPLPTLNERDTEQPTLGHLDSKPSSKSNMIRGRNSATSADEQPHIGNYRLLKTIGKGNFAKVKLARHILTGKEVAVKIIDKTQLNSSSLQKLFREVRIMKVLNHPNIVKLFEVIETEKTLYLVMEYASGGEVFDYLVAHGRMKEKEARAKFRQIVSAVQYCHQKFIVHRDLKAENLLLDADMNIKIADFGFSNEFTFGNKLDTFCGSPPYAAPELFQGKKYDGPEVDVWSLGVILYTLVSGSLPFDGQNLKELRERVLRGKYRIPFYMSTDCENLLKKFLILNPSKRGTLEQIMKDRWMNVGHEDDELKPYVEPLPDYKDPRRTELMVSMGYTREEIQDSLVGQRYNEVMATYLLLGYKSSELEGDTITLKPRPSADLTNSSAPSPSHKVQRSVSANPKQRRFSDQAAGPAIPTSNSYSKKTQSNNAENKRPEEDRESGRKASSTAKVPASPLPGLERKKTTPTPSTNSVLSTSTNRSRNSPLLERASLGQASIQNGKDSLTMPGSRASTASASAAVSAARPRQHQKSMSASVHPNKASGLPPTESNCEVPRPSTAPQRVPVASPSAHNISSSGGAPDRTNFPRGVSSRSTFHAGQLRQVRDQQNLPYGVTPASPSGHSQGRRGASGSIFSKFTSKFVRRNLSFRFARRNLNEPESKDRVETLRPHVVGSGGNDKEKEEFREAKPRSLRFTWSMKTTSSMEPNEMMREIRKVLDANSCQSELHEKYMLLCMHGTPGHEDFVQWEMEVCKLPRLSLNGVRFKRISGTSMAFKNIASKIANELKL
# [7] = molecular target: T1, Tyrosine-protein kinase receptor TYRO3 (Homo sapiens) (UniProt Q06418); experiment: Inhibition of TYRO3 (unknown origin) assessed as residual activity at 100 nM by KINOMEscan analysis relative to control
# T1 sequence (whole entry): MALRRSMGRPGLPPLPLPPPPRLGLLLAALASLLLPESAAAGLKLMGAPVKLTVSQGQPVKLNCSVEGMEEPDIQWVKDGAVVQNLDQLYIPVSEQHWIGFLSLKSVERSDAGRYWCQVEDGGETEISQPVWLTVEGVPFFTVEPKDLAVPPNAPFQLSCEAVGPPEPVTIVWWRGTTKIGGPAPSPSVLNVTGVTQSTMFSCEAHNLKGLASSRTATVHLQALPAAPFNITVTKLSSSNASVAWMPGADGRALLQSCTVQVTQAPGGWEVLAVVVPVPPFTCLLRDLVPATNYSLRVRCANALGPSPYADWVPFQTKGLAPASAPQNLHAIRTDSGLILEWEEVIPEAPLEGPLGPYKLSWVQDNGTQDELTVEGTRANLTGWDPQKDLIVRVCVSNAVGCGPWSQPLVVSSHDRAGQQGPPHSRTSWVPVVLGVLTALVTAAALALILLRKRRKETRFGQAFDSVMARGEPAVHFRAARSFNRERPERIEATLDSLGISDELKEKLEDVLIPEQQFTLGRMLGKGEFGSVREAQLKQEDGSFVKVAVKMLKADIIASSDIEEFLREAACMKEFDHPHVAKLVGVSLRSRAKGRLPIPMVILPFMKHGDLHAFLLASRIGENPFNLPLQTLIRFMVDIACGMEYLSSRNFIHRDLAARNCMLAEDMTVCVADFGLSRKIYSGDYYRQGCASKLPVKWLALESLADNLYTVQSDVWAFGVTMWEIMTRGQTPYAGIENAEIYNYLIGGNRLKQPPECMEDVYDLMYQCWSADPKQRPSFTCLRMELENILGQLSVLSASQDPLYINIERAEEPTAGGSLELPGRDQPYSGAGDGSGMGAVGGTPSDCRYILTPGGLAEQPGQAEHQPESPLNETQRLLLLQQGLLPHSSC
# [8] = molecular target: T2, Ephrin type-A receptor 3 (Homo sapiens) (UniProt P29320); experiment: Inhibition of EPHA3 (unknown origin) assessed as residual activity at 100 nM by KINOMEscan analysis relative to control
# T2 sequence (whole entry): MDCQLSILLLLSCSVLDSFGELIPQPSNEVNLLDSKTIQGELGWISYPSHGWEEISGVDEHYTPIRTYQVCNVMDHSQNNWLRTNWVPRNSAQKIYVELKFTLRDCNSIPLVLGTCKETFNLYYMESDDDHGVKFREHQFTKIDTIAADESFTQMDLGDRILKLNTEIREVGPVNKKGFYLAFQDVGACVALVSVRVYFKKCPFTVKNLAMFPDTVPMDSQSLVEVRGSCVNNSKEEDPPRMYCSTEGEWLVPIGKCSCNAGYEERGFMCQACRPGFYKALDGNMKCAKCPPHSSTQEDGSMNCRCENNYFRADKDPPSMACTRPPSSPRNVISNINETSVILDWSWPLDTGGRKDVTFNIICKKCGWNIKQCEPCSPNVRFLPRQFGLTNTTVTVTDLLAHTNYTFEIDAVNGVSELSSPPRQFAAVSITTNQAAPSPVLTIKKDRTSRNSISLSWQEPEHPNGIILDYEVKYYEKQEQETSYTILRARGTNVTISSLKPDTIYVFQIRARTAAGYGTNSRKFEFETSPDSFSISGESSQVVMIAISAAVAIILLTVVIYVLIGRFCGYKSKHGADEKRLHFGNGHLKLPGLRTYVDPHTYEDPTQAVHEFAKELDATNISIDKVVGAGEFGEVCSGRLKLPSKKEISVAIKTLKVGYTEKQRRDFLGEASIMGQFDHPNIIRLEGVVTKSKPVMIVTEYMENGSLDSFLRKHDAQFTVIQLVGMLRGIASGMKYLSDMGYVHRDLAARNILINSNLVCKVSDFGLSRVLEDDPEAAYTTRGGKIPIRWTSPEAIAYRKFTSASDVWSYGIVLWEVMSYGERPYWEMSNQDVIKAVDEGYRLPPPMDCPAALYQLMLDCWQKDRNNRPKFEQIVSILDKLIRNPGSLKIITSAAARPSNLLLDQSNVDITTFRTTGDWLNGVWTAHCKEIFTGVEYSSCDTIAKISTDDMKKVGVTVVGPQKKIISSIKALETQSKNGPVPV
# Homo sapiens = organism: Homo sapiens; experiment: Stabilization of N-terminal His10-tagged recombinant human KRAS G12C/C118S mutant (1 to 169 residues) expressed in Escherichia coli assessed as change in melting temperature at 100 uM with heating from 25 to 85 degreeC by thermal shift assay
# [9] = tested on: Epidermal growth factor receptor (Homo sapiens), P00533 [L861Q]; experiment: Inhibition of EGFR L861Q mutant (unknown origin) assessed as residual activity at 100 nM by KINOMEscan analysis relative to control
# [10] = molecular target: Cyclin-dependent kinase 17 (Homo sapiens) (UniProt Q00537); experiment: Inhibition of PCTK2 (unknown origin) assessed as residual activity at 100 nM by KINOMEscan analysis relative to control
# Sequence of Cyclin-dependent kinase 17 (Homo sapiens) (Q00537 whole entry, looked up): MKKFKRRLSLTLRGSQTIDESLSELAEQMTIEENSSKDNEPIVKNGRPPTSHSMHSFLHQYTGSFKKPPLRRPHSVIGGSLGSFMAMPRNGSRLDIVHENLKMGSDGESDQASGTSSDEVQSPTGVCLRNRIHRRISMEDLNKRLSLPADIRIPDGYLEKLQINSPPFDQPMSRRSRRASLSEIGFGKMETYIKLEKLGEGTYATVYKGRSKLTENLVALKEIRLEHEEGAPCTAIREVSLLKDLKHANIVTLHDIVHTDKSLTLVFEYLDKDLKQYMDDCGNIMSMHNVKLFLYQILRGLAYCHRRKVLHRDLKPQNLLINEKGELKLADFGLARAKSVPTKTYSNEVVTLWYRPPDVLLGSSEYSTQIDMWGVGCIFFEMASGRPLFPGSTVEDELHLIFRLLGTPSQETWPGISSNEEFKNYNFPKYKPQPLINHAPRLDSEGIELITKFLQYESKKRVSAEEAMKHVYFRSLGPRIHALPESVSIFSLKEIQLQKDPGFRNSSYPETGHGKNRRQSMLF
# [11] = molecular target: Myosin-IIIa (Homo sapiens) (UniProt Q8NEV4); experiment: Inhibition of MYO3A (unknown origin) assessed as residual activity at 100 nM by KINOMEscan analysis relative to control
# Sequence of Myosin-IIIa (Homo sapiens) (Q8NEV4 whole entry): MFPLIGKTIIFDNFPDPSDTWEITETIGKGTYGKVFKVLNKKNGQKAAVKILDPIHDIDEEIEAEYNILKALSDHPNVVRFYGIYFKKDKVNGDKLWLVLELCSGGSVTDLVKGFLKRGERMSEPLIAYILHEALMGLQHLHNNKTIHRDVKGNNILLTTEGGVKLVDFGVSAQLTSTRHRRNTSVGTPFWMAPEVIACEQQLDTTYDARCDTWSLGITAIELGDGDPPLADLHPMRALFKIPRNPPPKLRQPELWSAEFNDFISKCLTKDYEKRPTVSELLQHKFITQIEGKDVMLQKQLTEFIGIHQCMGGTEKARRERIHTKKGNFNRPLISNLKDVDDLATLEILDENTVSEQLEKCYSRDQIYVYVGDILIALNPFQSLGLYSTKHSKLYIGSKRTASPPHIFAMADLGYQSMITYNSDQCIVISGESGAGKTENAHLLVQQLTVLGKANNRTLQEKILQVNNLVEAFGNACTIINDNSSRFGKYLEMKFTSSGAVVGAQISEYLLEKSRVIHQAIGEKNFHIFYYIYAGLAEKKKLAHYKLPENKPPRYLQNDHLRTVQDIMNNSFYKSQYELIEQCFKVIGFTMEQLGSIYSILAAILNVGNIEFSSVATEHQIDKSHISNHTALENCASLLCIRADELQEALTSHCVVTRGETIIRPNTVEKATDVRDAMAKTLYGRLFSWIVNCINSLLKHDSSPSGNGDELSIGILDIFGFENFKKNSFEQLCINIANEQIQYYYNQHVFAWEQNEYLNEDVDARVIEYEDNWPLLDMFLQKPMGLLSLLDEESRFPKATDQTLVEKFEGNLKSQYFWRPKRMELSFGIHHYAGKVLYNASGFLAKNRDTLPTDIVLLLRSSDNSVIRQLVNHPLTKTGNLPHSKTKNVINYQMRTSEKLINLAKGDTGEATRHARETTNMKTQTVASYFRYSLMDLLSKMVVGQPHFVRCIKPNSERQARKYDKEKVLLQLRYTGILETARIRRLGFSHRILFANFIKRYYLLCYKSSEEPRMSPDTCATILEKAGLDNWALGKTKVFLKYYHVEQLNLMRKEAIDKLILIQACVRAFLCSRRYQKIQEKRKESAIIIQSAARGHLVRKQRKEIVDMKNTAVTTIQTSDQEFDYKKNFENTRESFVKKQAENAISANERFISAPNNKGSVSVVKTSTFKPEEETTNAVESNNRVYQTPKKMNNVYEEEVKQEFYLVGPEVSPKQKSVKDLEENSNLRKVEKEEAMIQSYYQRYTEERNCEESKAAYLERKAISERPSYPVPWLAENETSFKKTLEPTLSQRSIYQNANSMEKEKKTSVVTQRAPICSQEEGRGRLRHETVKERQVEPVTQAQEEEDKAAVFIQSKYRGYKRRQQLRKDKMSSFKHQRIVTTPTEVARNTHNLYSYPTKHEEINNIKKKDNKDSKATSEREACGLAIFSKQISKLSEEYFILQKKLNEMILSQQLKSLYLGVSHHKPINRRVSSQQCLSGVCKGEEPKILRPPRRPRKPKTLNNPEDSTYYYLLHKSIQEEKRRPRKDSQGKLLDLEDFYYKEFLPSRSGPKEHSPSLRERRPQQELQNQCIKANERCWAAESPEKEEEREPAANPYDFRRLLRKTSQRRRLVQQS
# Sequence of Serine/threonine-protein kinase PLK2 (Homo sapiens) (Q9NYY3 whole entry, looked up): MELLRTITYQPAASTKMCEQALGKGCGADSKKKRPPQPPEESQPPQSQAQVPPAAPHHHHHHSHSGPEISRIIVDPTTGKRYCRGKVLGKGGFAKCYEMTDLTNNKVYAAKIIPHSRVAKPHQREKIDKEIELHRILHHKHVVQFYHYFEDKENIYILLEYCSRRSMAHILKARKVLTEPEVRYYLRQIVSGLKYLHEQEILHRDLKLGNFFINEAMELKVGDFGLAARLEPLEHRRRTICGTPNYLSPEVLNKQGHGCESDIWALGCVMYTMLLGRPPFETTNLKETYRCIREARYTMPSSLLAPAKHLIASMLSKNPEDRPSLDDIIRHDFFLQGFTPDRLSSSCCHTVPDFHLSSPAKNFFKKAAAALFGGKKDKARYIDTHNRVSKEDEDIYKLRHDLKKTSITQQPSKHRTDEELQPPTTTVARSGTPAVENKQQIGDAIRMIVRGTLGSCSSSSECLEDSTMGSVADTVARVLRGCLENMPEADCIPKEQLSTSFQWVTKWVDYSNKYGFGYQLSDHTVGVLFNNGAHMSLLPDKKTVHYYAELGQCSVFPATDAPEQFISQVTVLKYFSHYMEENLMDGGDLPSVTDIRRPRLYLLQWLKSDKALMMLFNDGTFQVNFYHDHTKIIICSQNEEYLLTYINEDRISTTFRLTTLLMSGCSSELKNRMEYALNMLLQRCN
structure (smiles),measurement,setting,value
COc1cc2ncnc(N[C@H](C)c3cccc4ccccc34)c2cc1OC,Activity,[1],92%
same,Activity,[2],89%
same,Activity,[3],100%
same,Activity,[4],Active
same,Activity,[5],90%
same,Activity,[6],82%
same,Activity,[7],76%
same,Activity,[8],81%
same,ΔTm,Homo sapiens,-1.9 °C
same,Activity,[9],95%
same,Activity,[10],86%
same,Activity,[11],100%
